Data from patent publication US9446081B2, “Pharmaceutical composition for preventing and treating complications of diabetes containing a traditional oriental medicine extract or a fraction thereof as an active ingredient” (KOREA INSTITUTE OF ORIENTAL MEDICINE, priority 2011, dated 2016).
Values after ≈ are worked out from the molar mass of the structure shown. One block for each molecule: values may come before it.

Assays:
[1] = molecular target: T1, aldose reductase from lens of SD rat (Rattus norvegicus, UniProt P07943); assay: Inhibiting effect on aldose reductase (AR) activity; assay type: biochemical, Sprague-Dawley rat
T1 construct: natural aldose reductase from the eyeball of SD rat; from tissue; host or cells: Sprague-Dawley rat lens, homogenised; centrifuged and filtered supernatant
Method: Inhibiting effect of the extract of Homonoia riparia Lour. or the fractions (normal-hexane fraction, ethyl acetate fraction, normal-butanol fraction, and water fraction) thereof on aldose reductase activity was investigated in vitro. To obtain natural aldose reductase from the eyeball of SD rat (Sprague-Dawley rat, 250˜280 g) according to the method of Dufrane (1984), 135 mM Na, K-phosphate buffer (pH 7.0), and 10 mM 2-mercaptoethanol were mixed with the extracted lens, which was ground by using a homogenizer and a sonicater. After performing centrifugation at 14,000 rpm for 30 minutes, the supernatant was filtered by using 0.2 μm filter. All the procedures were performed at 4° C. Quantification was performed by Lowry method using BSA as a protein source of the enzyme. The mixture comprising 135 mM Na, K-phosphate buffer (pH 7.0), 100 mM lithium sulfate, 0.03 mM NADPH, 0.04 mM DL-glycealdehyde and 100 μg/ml enzyme mixture was dissolved in 0.1% DMSO, which was distributed to 50 μl of each sample diluted at different concentrations by 50 μl to make the total volume 1 ml, followed by culture for 10 minutes at 37° C. The experimental blank group was added with the mixture excluding 0.04 mM DL-glycealdehyde, and STD was treated with the sample including 135 mM Na, K-phosphate buffer (pH 7.0), 100 mM lithium sulfate, and 50 μl of NADP (0.2˜5 μM). The reaction was terminated by adding 0.3 ml of 0.5 N HCl. 1 ml of 6 M NaOH including 10 mM imidazole was added thereto, followed by reaction at 60° C. for 10 minutes. Then, the conversion of NADP to fluorescent product was measured. The examination was performed in triplicate. The effect was measured by using a spectrofluorophotometric detector (Bio-TEK, Synergy HT, USA) (Ex. 360 nm, Em. 460 nm) and presented as IC50. The extract of Homonoia riparia Lour. was prepared at the concentration of 1 μg/ml, 2.5 μg/ml, or 5 μg/ml. The normal-hexane fraction was prepared at the concentration of 2.5 μg/ml, 5 μg/ml, or 10 μg/ml. The ethyl acetate fraction was prepared at the concentration of 0.5 μg/ml, 1 μg/ml, or 2.5 μg/ml. The normal-butanol fraction was prepared at the concentration of 1 μg/ml, 2.5 μg/ml, or 5.0 μg/ml. The water fraction was prepared at the concentration of 2.5 μg/ml, 5 μg/ml, or 10 μg/ml. As the comparative control group, one of the excellent aldose reductase inhibitors, 3,3-tetramethyleneglutaric acid, was prepared at the concentration of 3.72 μg/ml, 4.66 μg/ml, or 5.59 μg/ml. Then, AR inhibiting effect of each sample was measured.

[2] = molecular target: AGE-BSA cross-linked to collagen (Bos taurus, UniProt P02769); assay: In vitro AGE cross-linking breaking effect (AGE-BSA on collagen-coated plate, ELISA); assay type: biochemical; details: 4 hours at 37° C.; for AGE-BSA (%) remaining cross-linked: OD of treated well/untreated well x100
Method: 1.0 μg of AGE-BSA was distributed in a collagen-coated 96-well microtitre plate, followed by culture for 4 hours at 37° C. The plate was then washed with PBS containing 0.05% tween three times to eliminate non-conjugated AGE-BSA. Homonoia riparia Lour. The extract of Homonoia riparia Lour. or ALT-711 (4,5-dimethyl-3-(2-oxo-2-phenylethyl)-thiazolium chloride; Alteon Inc., Ramsey, N.J.) known as the AGEs cross-linking breaker was 2-fold diluted serially from the concentration of 1000 μg/ml to 1 μg/ml, which was added to each well (triplicate), followed by culture for 4 hours at 37° C. Upon completion of the culture, each well was washed with PBS containing 0.05% tween three times. To detect the AGE-BSA remaining as cross-linked to collagen, rabbit polyclonal anti-AGE-BSA antibody (MBL international, Woburn, Mass.) diluted at the ratio of 1:250 was distributed in each well, followed by culture for 1 hour at 37° C. One hour later, the plate was washed with PBS containing 0.05% tween three times, to which horseradish peroxidase-linked goat anti-rabbit antibody (Sigma, USA) was applied. Color development was induced by using 3,3′,5,5′-tetramethylbenzidine (TMB) as a substrate and OD450 was measured. Breaking % of AGE-BSA cross-linking was calculated by the following mathematical formula 2. AGE-BSA (%)=OD of sample treated well/OD of sample untreated well×100 [Mathematical Formula 2]

[3] = system: advanced glycation endproducts production (bovine serum albumin + fructose/glucose); assay: Inhibiting effect on advanced glycation endproducts production (BSA with fructose/glucose, fluorescence); assay type: biochemical; details: 14 days at 37° C.
Method: Inhibiting effect of the extract of Homonoia riparia Lour. obtained in <Example 1> and each fraction thereof (normal-hexane, ethyl acetate, normal-butanol, or water fraction) obtained in <Example 2> on the advanced glycation endproducts production was investigated in vitro. Bovine serum albumin (BSA, Sigma, USA) was used as a protein source. BSA was added to 50 mM phosphate buffer (pH 7.4) to make the concentration 10 mg/ml. 0.2 M fructose/0.2 M glucose mixed solution was used as a sugar source. The fructose/glucose mixed solution was added to the BSA solution prepared above. The ethanol extract of Homonoia riparia Lour. was prepared at the concentration of 2.5 μg/ml, 5 μg/ml, or 10 μg/ml. The normal-hexane fraction was prepared at the concentration of 10 μg/ml, 25 μg/ml, or 50 μg/ml. The ethyl acetate fraction was prepared at the concentration of 1.25 μg/ml, 2.5 μg/ml, or 5 μg/ml. The normal-butanol fraction was prepared at the concentration of 1.25 μg/ml, 2.5 μg/ml, or 5 μg/ml. The water fraction was prepared at the concentration of 2.5 μg/ml, 5 μg/ml, or 10 μg/ml. All the compounds were dissolved in dimethylsulfoxide (DMSO), to which 15% tween 80 was added. At that time, the final DMSO content was 0.2%. The prepared extract or the fractions thereof were added to the BSA/sugar mixed solution, followed by culture for 14 days at 37° C. At that time, 0.02% sodium azide and antimycotics were added as an anti-bacterial agent and an anti-fungal agent. The BSA/sugar mixed solution was cultured, which was used as the control. The extract or the fractions thereof were used as the blank. In the meantime, aminoguanidine was used as the positive control, which was the index for the effect comparison. Particularly, aminoguanidine was dissolved in distilled water, followed by culture by the same manner as described above at the concentration of 18.5 μg/ml, 37 μg/ml, or 55.5 μg/ml for 14 days. All the culture solutions were prepared 4 of each to minimize error. After 14 days of culture, the amount of the advanced glycation endproducts was measured. The advanced glycation endproducts were fluorescent brown and had physiochemical property suitable for cross-linking, and also had ligands which could be recognized by cell membrane receptors. The amount of the advanced glycation endproducts having the said properties was measured by a microplate reader (Excitation: 350 nm, Emission: 450 nm) to evaluate the inhibiting effect on the advanced glycation endproducts production (Vinson, J. A. et al., J. Nutr. Biochem., 7: 659-663, 1996). Inhibition rate of the advanced glycation endproducts production was calculated by the following mathematical formula 1. […]

Sequence of AGE-BSA cross-linked to collagen (P02769 25-607): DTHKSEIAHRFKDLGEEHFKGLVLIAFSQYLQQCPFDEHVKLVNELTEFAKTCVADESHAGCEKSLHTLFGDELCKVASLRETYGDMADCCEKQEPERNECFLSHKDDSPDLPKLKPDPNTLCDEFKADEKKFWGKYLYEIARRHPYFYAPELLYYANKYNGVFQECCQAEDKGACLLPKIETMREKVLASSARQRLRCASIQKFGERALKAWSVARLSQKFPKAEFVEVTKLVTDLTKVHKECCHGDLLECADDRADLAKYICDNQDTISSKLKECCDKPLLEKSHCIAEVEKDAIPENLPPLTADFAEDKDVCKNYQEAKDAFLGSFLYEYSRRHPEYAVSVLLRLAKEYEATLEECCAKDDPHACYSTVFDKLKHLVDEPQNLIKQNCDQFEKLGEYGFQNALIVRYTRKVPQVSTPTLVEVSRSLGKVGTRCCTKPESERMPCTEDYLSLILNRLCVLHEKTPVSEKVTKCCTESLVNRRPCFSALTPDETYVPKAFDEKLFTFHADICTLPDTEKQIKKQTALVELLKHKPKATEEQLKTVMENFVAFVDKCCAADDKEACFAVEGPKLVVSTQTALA

inhibition at 3.72 µg/mL ([1]; conc. 3.72 μg/ml): 33 ± 4.36%
inhibition at 4.66 µg/mL ([1]; conc. 4.66 μg/ml): 40.3 ± 1.36%
inhibition at 5.59 µg/mL ([1]; conc. 5.59 μg/ml): 51.6 ± 0.78%
IC50 ([1]; rat lens enzyme, read-out: Inhibiting effect (IC50) (μg/ml), aldose reductase (converted)): 29.1 µM
Compound: O=C(O)CC1(CC(=O)O)CCCC1 [3,3-tetramethyleneglutaric acid]

IC50 ([2]; read-out: IC50 (μg/ml), AGE-BSA cross-linking breaking): > 3730 µM
AGE-BSA (%) remaining cross-linked ([2]; conc. 10 μg/ml): 100.18 ± 18.4%
AGE-BSA (%) remaining cross-linked ([2]; conc. 50 μg/ml): 100.13 ± 4.42%
AGE-BSA (%) remaining cross-linked ([2]; conc. 100 μg/ml): 100.21 ± 5.46%
AGE-BSA (%) remaining cross-linked ([2]; conc. 1000 μg/ml): 51.77 ± 9.54%
Compound: Cc1sc[n+](CC(=O)c2ccccc2)c1C.[Cl-] [ALT-711, 4,5-dimethyl-3-(2-oxo-2-phenylethyl)-thiazolium chloride]

IC50 (μg/ml) 14th day, advanced glycation endproducts production [3]: 52.96 µg/mL (≈ 715 µM)
Inhibition (%) 14th day ([3]; conc. 18.5 μg/ml): 15.50 ± 1.79%
Inhibition (%) 14th day ([3]; conc. 37 μg/ml): 33.56 ± 0.51%
Inhibition (%) 14th day ([3]; conc. 55.5 μg/ml): 52.81 ± 2.81%
Compound: N=C(N)NN [Aminoguanidine]
